Test results: patent US9453192B2, “High-acidity vinegar and method for producing the same” (priority 2012, dated 2016)
Read-outs that look alike come from different tables or passages of the source.

Assays:
[1] = system: Acetobacter altoacetigenes MH-24 (FERM BP-491)
Description: (§1) The present invention relates to a method for producing a high-acidity vinegar having acidity of 10% to 25%, particularly 15% to 25% by brewing, i.e., acetic acid fermentation. In general, the acidity of vinegar means the concentration of acetic acid (w/v %) in the vinegar. The acidity referred to herein means the acetic acid concentration determined by conducting neutralization titration of the sample (vinegar) with phenolphthalein as an indicator and 1N sodium hydroxide aqueous solution in the manner known to persons skilled in the art.
(§2) A culture solution (2.5 L) containing acetic acid (8 w/v %), ethanol (2 v/v %), Acetozym DS+2 (product of FRINGS; 0.15 w/v %), and a variety of additives at given concentrations was introduced into a 5 L-volume jar fermenter. The total nitrogen content of the culture solution was 0.006 w/v %. Cryopreserved Acetobacter altoacetigenes MH-24 (FERM BP-491) was inoculated into the culture solution to start acetic acid fermentation. Submerged fermentation involving aeration stirring was adopted for the fermentation. Fermentation was conducted under the conditions of a temperature at 30° C., a rotative speed of 600 rpm, and an aeration volume of 0.15 vvm.
(§3) After the start of fermentation, 95% ethanol was fed to the fermentation liquid until the acidity (acetic acid concentration: w/v %) of the fermentation liquid exceeded 15% so as to maintain the ethanol concentration in the fermentation liquid at 1.5 to 3 v/v %. At the time point at which the acidity exceeded 15% (approximately 15.5%) and the ethanol concentration reached about 0.5 v/v %, the fermentation liquid was pulled out such that approximately half of the total fermentation liquid volume is remained.
After the portion of the fermentation liquid was pulled out, the above components were added again without discontinuation of aeration and stirring of the remaining fermentation liquid such that the volume of the fermentation liquid was adjusted to 2.5 L and the composition of the fermentation liquid became equivalent to the composition of the original culture solution. Then, fermentation was continued in the above manner. Thereafter the cycle, in which fermentation was conducted until the acidity exceeded 15% (approximately 15.5%), approximately half of the total volume of the fermentation liquid was pulled out and the above components were added again to restart fermentation with decreased acidity, is repeated to conduct semi-continuous fermentation. Seven times repeats of the cycle from the start of fermentation to re-introduction of the components was regarded as one examination. Six examinations were conducted with each different condition of additives. […]

[2] = system: Acetobacter altoacetigenes MH-24 (FERM BP-491); test: Semi-continuous acetic acid fermentation, culture solution with Acetozym DS+2 and additives (Example 1); assay type: cell-based; conditions: for Final acidity: acidity when a portion of the fermentation liquid was pulled out; for Fermentation time: average time of one cycle (2nd to 7th cycles) until acidity exceeded 15%; for Productivity: rate of increase in acidity per hour
Description: as §1, §2, §3
After the portion of the fermentation liquid was pulled out, the above components were added again without discontinuation of aeration and stirring of the remaining fermentation liquid such that the volume of the fermentation liquid was adjusted to 2.5 L and the composition of the fermentation liquid became equivalent to the composition of the original culture solution. Then, fermentation was continued in the above manner. Thereafter the cycle, in which fermentation was conducted until the acidity exceeded 15% (approximately 15.5%), approximately half of the total volume of the fermentation liquid was pulled out and the above components were added again to restart fermentation with decreased acidity, is repeated to conduct semi-continuous fermentation. Seven times repeats of the cycle from the start of fermentation to re-introduction of the components was regarded as one examination. Six examinations were conducted with each different condition of additives. Table 1 summarizes the average time duration required for one cycle, i.e., from the restart of fermentation to the time point at which the acidity exceeded 15%, (the average time of 2nd to 7th cycles), final acidity (acidity when a portion of the fermentation liquid was pulled out), and productivity (the rate of increase in acidity per hour) with the types and amounts of additives.

[3] = Glutathione 220 μM, 4 cycle repetitions

## N[C@@H](CCC(=O)N[C@@H](CS)C(=O)NCC(=O)O)C(=O)O [Glutathione]
[1]; [3]
  Fermentation time: 51.3 h
  Final acidity: 15.4%
[1]; Glutathione 220 μM, 4 cycle repetitions, rate of increase in acidity per hour
  Productivity: 0.144 %/h
[1]; Glutathione used as additive (220 μM), versus no additive
  Effect on productivity: productivity was significantly improved

## N[C@@H](CSSC[C@H](N)C(=O)O)C(=O)O [L-cystine]
[2]; L-cystine 18 μM
  Final acidity: 15.4%
  Fermentation time: 48.9 h
  Productivity: 0.151 %/h
[2]; L-cystine 45 μM
  Final acidity: 15.3%
  Fermentation time: 41.7 h
  Productivity: 0.175 %/h
[2]; L-cystine 90 μM
  Final acidity: 15.3%
  Fermentation time: 37.5 h
  Productivity: 0.195 %/h
[2]; L-cystine alone, 18 μM (Exam 2)
  Effect on productivity as compared with Exam 1 (no additive): effect of improving productivity was confirmed
